Results: US12692261B2, “Substituted heterocyclic compounds and therapeutic uses thereof” (Bayer Aktiengesellschaft, priority 2020, dated 2026)
Read-outs that look alike come from different tables or passages of the source.

Experiments:
[1] = target: T1, full-length human CSNK1A1 (Homo sapiens, UniProt P48729); assay: CSNK1A1 Assay 2 (ADP-Glo, 1 μM ATP, substrate biotin-Ahx-KRRRAL-pS-VASLPGL); format: biochemical; conditions: Table 3, read-out: CSNK1A1 Assay 2 IC50 [mol/l] (median)
T1 construct: N-terminal Glutathion-S-Transferase (GST) and full-length human CSNK1A1; purchased Life Technologies PV4174; host or cells: baculovirus infected insect cells
T1 sequence (P48729 whole entry): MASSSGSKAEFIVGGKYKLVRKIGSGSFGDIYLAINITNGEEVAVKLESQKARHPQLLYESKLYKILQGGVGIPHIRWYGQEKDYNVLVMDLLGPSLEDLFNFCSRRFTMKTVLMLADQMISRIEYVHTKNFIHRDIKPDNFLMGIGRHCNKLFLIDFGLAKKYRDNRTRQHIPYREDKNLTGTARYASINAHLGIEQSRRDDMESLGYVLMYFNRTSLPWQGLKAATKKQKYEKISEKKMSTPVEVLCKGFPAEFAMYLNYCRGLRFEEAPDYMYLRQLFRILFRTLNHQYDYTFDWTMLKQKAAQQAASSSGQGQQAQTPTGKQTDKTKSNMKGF
Procedure, shortened: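 Activity read as ADP generated (ADP-Glo luciferase luminescence, 1 h detection steps at 22 °C). Enzyme was insect-cell-expressed GST–full-length human CSNK1A1, compound-preincubated 15 min before reaction with phosphopeptide substrate and 1 μM ATP in 50 mM HEPES pH 7.5, 10 mM MgCl2.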

[2] = target: T2, wild-type Epidermal Growth Factor Receptor (EGFR) (Homo sapiens, UniProt P00533); assay: WT-EGFR Kinase Assay (TR-FRET, 2 mM ATP); format: biochemical
T2 construct: a fragment of human EGFR (amino acids R669 to A1210); made in house; host or cells: Sf9 insect cells
T2 sequence (P00533 669-1210): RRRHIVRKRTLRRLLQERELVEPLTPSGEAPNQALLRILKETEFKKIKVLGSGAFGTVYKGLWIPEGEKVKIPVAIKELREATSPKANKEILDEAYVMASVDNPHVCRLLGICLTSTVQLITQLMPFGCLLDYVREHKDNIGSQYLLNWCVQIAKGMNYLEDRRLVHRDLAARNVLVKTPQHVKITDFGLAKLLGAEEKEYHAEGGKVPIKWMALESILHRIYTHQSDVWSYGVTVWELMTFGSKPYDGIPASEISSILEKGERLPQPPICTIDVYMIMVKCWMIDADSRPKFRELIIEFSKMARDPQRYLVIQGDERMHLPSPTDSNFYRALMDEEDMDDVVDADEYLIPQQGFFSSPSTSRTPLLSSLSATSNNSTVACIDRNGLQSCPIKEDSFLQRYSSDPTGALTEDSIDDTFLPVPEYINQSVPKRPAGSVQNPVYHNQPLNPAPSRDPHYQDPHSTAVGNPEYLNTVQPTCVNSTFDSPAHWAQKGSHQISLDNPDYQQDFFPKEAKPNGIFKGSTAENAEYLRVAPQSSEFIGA
Procedure, shortened: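 GST-fused human EGFR fragment (R669-A1210) from Sf9 cells, typically 7.6 pg/μL, pre-incubated with compound 15 min at 22° C in Hepes pH 7.0 buffer with MgCl2, DTT and vanadate; biotinylated peptide substrate. After EDTA stop, phosphopeptide detected by TR-FRET (anti-phosphotyrosine Tb-cryptate/streptavidin-XL665), 665/620 nm emission ratio.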

[3] = EGFR Wildtyp 2 mM ATP IC50 [mol/l] (median), Table 4
[4] = read-out: EGFR Wildtyp 2 mM ATP IC50 [mol/l] (median), Table 4

O=C(Nc1cc(-c2[nH]c3cccnc3c2-c2cccc(F)n2)ccn1)C(CC(F)F)c1ccc(F)cc1 (single isomer, unassigned; (-)) [Example 26, (−)-4,4-difluoro-2-(4-fluorophenyl)-N-{4-[3-(6-fluoropyridin-2-yl)-1H-pyrrolo[3,2-b]pyridin-2-yl]pyridin-2-yl}butanamide]
IC50 [1]: 15.8 nM | IC50 [2, 3]: > 20000 nM

Cc1cc(F)nc2c(-c3ccccn3)c(-c3ccnc(NC(=O)C(CC(F)F)c4ccc(F)cc4)c3)[nH]c12 (racemic) [Example 36, (rac)-4,4-difluoro-N-{4-[5-fluoro-7-methyl-3-(pyridin-2-yl)-1H-pyrrolo[3,2-b]pyridin-2-yl]pyridin-2-yl}-2-(4-fluorophenyl)butanamide]
IC50 [1]: 21.4 nM | IC50 [2, 3]: > 20000 nM

O=C(Nc1cc(-c2[nH]c3nccnc3c2-c2ccccn2)ccn1)C(CC(F)F)c1ccc(F)cc1 (racemic) [Example 31, (2RS)-4,4-difluoro-2-(4-fluorophenyl)-N-{4-[7-(pyridin-2-yl)-5H-pyrrolo[2,3-b]pyrazin-6-yl]pyridin-2-yl}butanamide]
IC50 [1]: 3.04 nM | IC50 [2, 3]: > 20000 nM

O=C(Nc1cc(-c2[nH]c3c(C4CCCO4)cc(F)nc3c2-c2ccccn2)ccn1)C(CC(F)F)c1ccc(F)cc1 (single isomer, unassigned) [Example 118, (2R or S)-4,4-difluoro-N-(4-{5-fluoro-7-[(2R or S)-oxolan-2-yl]-3-(pyridin-2-yl)-1H-pyrrolo[3,2-b]pyridin-2-yl}pyridin-2-yl)-2-(4-fluorophenyl)butanamide]
IC50 [1]: 66.9 nM | IC50 [2, 3]: > 20000 nM

O=C(Nc1cc(-c2[nH]c3c(OCC(F)(F)F)ncnc3c2-c2ccccn2)ccn1)C(CC(F)(F)F)c1ccc(F)cc1 (single isomer, unassigned) [Example 127, (2R or S)-4,4,4-trifluoro-2-(4-fluorophenyl)-N-{4-[7-(pyridin-2-yl)-4-(2,2,2-trifluoroethoxy)-5H-pyrrolo[3,2-d]pyrimidin-6-yl]pyridin-2-yl}butanamide]
IC50 [1]: 85 nM | IC50 [2, 4]: > 20000 nM

O=C(Nc1cc(-c2[nH]c3ccc(F)nc3c2-c2ccccn2)ccn1)[C@H](CC(F)F)c1ccc(F)cc1 (single isomer, unassigned) [Example 3]
IC50 [1]: 9.21 nM | IC50 [2, 3]: > 20000 nM

O=C(Nc1cc(-c2[nH]c3c(CC4CC4)cc(F)nc3c2-c2ccccn2)ccn1)C(CC(F)F)c1ccc(F)cc1 (single isomer, unassigned) [Example 48, (2R or S)—N-{4-[7-(cyclopropylmethyl)-5-fluoro-3-(pyridin-2-yl)-1H-pyrrolo[3,2-b]pyridin-2-yl]pyridin-2-yl}-4,4-difluoro-2-(4-fluorophenyl)butanamide]
IC50 [1]: 9.91 nM | IC50 [2, 4]: > 20000 nM

Cc1cc2[nH]c(-c3ccnc(NC(=O)C(CC(F)F)c4ccc(F)cc4)c3)c(-c3ccccn3)c2nc1F (racemic) [Example 33, (rac)-4,4-difluoro-N-{4-[5-fluoro-6-methyl-3-(pyridin-2-yl)-1H-pyrrolo[3,2-b]pyridin-2-yl]pyridin-2-yl}-2-(4-fluorophenyl)butanamide]
IC50 [1]: 19.5 nM | IC50 [2, 3]: > 20000 nM

O=C(Nc1cc(-c2[nH]c3c(OCC(F)(F)F)ncnc3c2-c2ccccn2)ccn1)C(CC(F)(F)F)c1ccc(F)cc1 (single isomer, unassigned) [Example 126, (2R or S)-4,4,4-trifluoro-2-(4-fluorophenyl)-N-{4-[7-(pyridin-2-yl)-4-(2,2,2-trifluoroethoxy)-5H-pyrrolo[3,2-d]pyrimidin-6-yl]pyridin-2-yl}butanamide]
IC50 [1]: 5.94 nM | IC50 [2, 3]: > 20000 nM

Cc1cc2[nH]c(-c3ccnc(NC(=O)C(CC(F)F)c4ccc(F)cc4)c3)c(-c3ccccn3)c2nc1F (single isomer, unassigned) [Example 34, 4,4-difluoro-N-{4-[5-fluoro-6-methyl-3-(pyridin-2-yl)-1H-pyrrolo[3,2-b]pyridin-2-yl]pyridin-2-yl}-2-(4-fluorophenyl)butanamide]
IC50 [1]: 3.79 nM | IC50 [2, 3]: > 20000 nM

COc1cc(F)nc2c(-c3ccccn3)c(-c3ccnc(NC(=O)C(CC(F)F)c4ccc(F)cc4)c3)[nH]c12 (racemic) [Example 39, (rac)-4,4-difluoro-N-{4-[5-fluoro-7-methoxy-3-(pyridin-2-yl)-1H-pyrrolo[3,2-b]pyridin-2-yl]pyridin-2-yl}-2-(4-fluorophenyl)butanamide]
IC50 [1]: 19 nM | IC50 [2, 3]: > 20000 nM

O=C(Nc1cc(-c2[nH]c3c(OCC(F)(F)F)ncnc3c2-c2ccccn2)ccn1)C(CC(F)(F)F)c1ccc(F)cc1 (racemic) [Example 125, (2RS)-4,4,4-trifluoro-2-(4-fluorophenyl)-N-{4-[7-(pyridin-2-yl)-4-(2,2,2-trifluoroethoxy)-5H-pyrrolo[3,2-d]pyrimidin-6-yl]pyridin-2-yl}butanamide]
IC50 [1]: 14.8 nM | IC50 [2, 3]: > 20000 nM

O=C(Nc1cc(-c2[nH]c3c(OC4CC4)cc(F)nc3c2-c2ccccn2)ccn1)C(CC(F)F)c1ccc(F)cc1 (single isomer, unassigned) [Example 43, N-{4-[7-(cyclopropyloxy)-5-fluoro-3-(pyridin-2-yl)-1H-pyrrolo[3,2-b]pyridin-2-yl]pyridin-2-yl}-4,4-difluoro-2-(4-fluorophenyl)butanamide]
IC50 [1]: 10.2 nM | IC50 [2, 3]: > 20000 nM

O=C(Nc1cc(-c2[nH]c3nccnc3c2-c2ccccn2)ccn1)C(CC(F)(F)F)c1ccc(F)cc1 (racemic) [Example 119, (2RS)-4,4,4-trifluoro-2-(4-fluorophenyl)-N-{4-[7-(pyridin-2-yl)-5H-pyrrolo[2,3-b]pyrazin-6-yl]pyridin-2-yl}butanamide]
IC50 [1]: 2.71 nM | IC50 [2, 3]: > 20000 nM

O=C(Nc1cc(-c2[nH]c3c(N4CCNCC4)ccnc3c2-c2ccccn2)ccn1)C(CC(F)F)c1ccc(F)cc1 (single isomer, unassigned) [Example 94, (2R or S)-4,4-difluoro-2-(4-fluorophenyl)-N-{4-[7-(piperazin-1-yl)-3-(pyridin-2-yl)-1H-pyrrolo[3,2-b]pyridin-2-yl]pyridin-2-yl}butanamide]
IC50 [1]: 2.31 nM | IC50 [2, 4]: > 20000 nM

O=C(Nc1cc(-c2[nH]c3c(OCC(F)F)cc(F)nc3c2-c2ccccn2)ccn1)C(CC(F)F)c1ccc(F)cc1 (racemic) [Example 28, (2RS)—N-{4-[7-(2,2-difluoroethoxy)-5-fluoro-3-(pyridin-2-yl)-1H-pyrrolo[3,2-b]pyridin-2-yl]pyridin-2-yl}-4,4-difluoro-2-(4-fluorophenyl)butanamide]
IC50 [1]: 3.95 nM | IC50 [2, 3]: > 20000 nM

O=C(Nc1cc(-c2[nH]c3cccnc3c2-c2ccccc2)ccn1)C(CC(F)F)c1ccc(F)cc1 (racemic) [Example 22, 4,4-difluoro-2-(4-fluorophenyl)-N-[4-(3-phenyl-1H-pyrrolo[3,2-b]pyridin-2-yl)pyridin-2-yl]butanamide]
IC50 [1]: 2.37 nM | IC50 [2, 3]: > 20000 nM

O=C(Nc1cc(-c2[nH]c3ccc(F)nc3c2-c2cc(F)ccn2)ccn1)C(CC(F)F)c1ccc(F)cc1 (single isomer, unassigned) [Example 96, (2R or S)-4,4-difluoro-N-{4-[5-fluoro-3-(4-fluoropyridin-2-yl)-1H-pyrrolo[3,2-b]pyridin-2-yl]pyridin-2-yl}-2-(4-fluorophenyl)butanamide]
IC50 [1]: 4.67 nM | IC50 [2, 3]: > 20000 nM
